Key:
tobacco BY2 cells [1] = assay: Toxicity of Neu5Ac on tobacco BY2 cells (cell viability, propidium iodide and fluorescein diacetate); format: cell-based, Nicotiana tabacum; settings: 10 mM Neu5Ac, 48 h period
[2] = Synthase activity of recombinant Neu5Ac lyase (formation of Neu5Ac from D-ManNAc and pyruvate, GC-EI MS); format: biochemical; settings: pH 7, […]° C.
Experimental: Soluble enzyme activities were assayed by incubating cell extracts with PEP 4 mM, NADH 4 mM, NaHCO3 20 mM and DTE 10 mM. Oxydation of NADH was measured by a diminution of absorbance at 340 nm after 10 min. […] Cells extracts were incubated 2 h at 37° C. in Solution B (100 mM Tris-HCl buffer, pH=7.4 and 10 mM MgCl2) containing proteinase inhibitors (pepstatine 1 μg·mL^−1, E64 1 μg·mL^1 and PMSF 1 mM) and Neu5Ac 40 mM. […] Cells extracts were incubated 2 h at 37° C. in Solution B (100 mM […], pH=7.4 and 10 mM MgCl2) containing proteinase inhibitors (pepstatine 1 μg·mL^−1, E64 1 μg·mL^1 and PMSF 1 mM) and ManNAc 20 mM and pyruvate 40 mM. Synthase activity of NeuB2 was assayed by measuring the formation of Neu5Ac after incubating transformants cells extracts with ManNAc and PEP. Cells extracts were incubated 2 h at 37° C. in Solution B (100 mM Tris-HCl buffer, pH=7.4 and 10 mM MgCl2) containing proteinase inhibitors (pepstatine 1 μg·mL^−1, E64 1 μg·mL^−1 and PMSF 1 mM) and ManNAc 10 mM and PEP 10 mM. […]
For the enzymatic assays, the reaction mixtures were first submitted to a purification step on C18 Seppack cartridges. […] The quantification of sugar was done by integration of peaks and determination of the corresponding molar values using response factors established with standard monosaccharides. […]

[3] = Stability of the recombinant enzymes expressed in the plant cytosol; settings: tobacco BY2 cells, alfalfa plants or transient expression
Excerpt: The synthesis of Neu5Ac in presence of pyruvate and ManNAc was also observed.

tobacco BY2 cells [4] = assay: In planta activity of Neu5Ac lyase: feeding transformed tobacco BY2 cells with Neu5Ac, GC of cytosolic monosaccharides; format: cell-based, Nicotiana tabacum; settings: BY2 cells fed 10 mM Neu5Ac, 48 h
Experimental: After 2 d, BY2 cells were washed with BY2 medium without Neu5Ac or ManNAc and harvested. The cells were heated at 70° C. for 15 min in 70% ethanol to inactivate enzymes and then ground in a potter homogenizer. The homogenate was washed two times with 70% ethanol at 70° C. The remaining pellet and the supernatant were considered as representatives of the cell walls and the cytosolic free monosaccharides respectively. Monosaccharides of the supernatant fraction were then analysed by gas chromatography
The formation of D-ManNAc was determined by analysing cytosolic monosaccharides by GC after a 48 h period at temperature ranging from 23° C. to 37° C.

Question: For `CC(=O)N[C@H]1[C@H]([C@H](O)[C@H](O)CO)OC(O)(C(=O)O)C[C@@H]1O` (stereo partly shown) [Neu5Ac, N-acetyl neuraminic acid], which “toxicity of Neu5Ac on tobacco BY2 cells (cell viability)” value (tobacco BY2 cells [1]) is on record?
Answer: no toxic effects were observed

Question: Which “ability to synthesise Neu5Ac” value [2] does the source give for “Neu5Ac lyase: Neu5Ac lyase from Escherichia coli K1 (accession number D00067) expressed in tobacco BY2 cells” here?
Answer: able to synthesise Neu5Ac

Question: What about the “degradation of recombinant protein in the cytosol” value [3] of the same compound?
Answer: No degradation

Question: What about the “increase in D-ManNAc content at 37° C. compared to 23° C.” value (tobacco BY2 cells [4]) of the same compound?
Answer: 25 fold

From patent US9657305B2, “Synthesis of sialic acid in plants” (Medicago, Inc., priority 2006, dated 2017)
